Where a name gives a salt, the structure may show the parent alone. Read-outs that look alike come from different tables or passages of the source.
Test: toxicity per os (LD50)
Format: in vivo
Description: Furthermore, their toxicities are extremely low in comparison with previously known cytostatic and cancer retardant pharmaceuticals.

SMILES | LD50 (in vivo, po, read-out: LD50) [mg/kg] | LD50 [mg/kg]
Clc1ccc(C(c2ccccc2)N2CC[N+]3(CCOCC3)CC2)cc1 (stereo not drawn) [X = Cl, N^1-(4'-chlorobenzhydryl)-N^4-spiro-morpholino-piperazinium chloride-hydrochloride] | 316 | –
Clc1ccc(C(c2ccccc2)N2CC[N+]3(CCOCC3)CC2)cc1.[Br-] (stereo not drawn) [X = Br, N^1-(4'-chlorobenzhydryl) -N^4-spiromorpholinopiperazinium bromide] | – | 308.5
Clc1ccc(C(c2ccccc2)N2CC[N+]3(CCOCC3)CC2)cc1 (stereo not drawn) [X = I, N^1-(4'-chlorobenzhydryl)-N^4-spiromorpholinopiperazinium iodide] | – | 276.7

Reference: patent publication US3996222A, “Piperazine derivatives” (CRC Compagnia de Ricerca Chimica, priority 1972, dated 1976)
